Laboratory results as given in patent US9174952B2, “Substituted 3-thiazoloamino-propionic acid derivatives and their use as pharmaceuticals” (SANOFI, priority 2011, dated 2015).

These compounds were tested against T1, Recombinant human cathepsin A (Homo sapiens, UniProt P10619) (assay: Cathepsin A inhibitory activity). Settings: activated recombinant human cathepsin A 833 ng/ml, Bodipy FL-labeled bradykinin substrate 2 μM, pH 5.5, room temperature.
T1 construct: Recombinant human cathepsin A (residues 29-480, with a C-terminal 10-His tag); 10-His (C); purchased R&D Systems 1049-SE
T1 sequence (P10619 29-326 limits assumed): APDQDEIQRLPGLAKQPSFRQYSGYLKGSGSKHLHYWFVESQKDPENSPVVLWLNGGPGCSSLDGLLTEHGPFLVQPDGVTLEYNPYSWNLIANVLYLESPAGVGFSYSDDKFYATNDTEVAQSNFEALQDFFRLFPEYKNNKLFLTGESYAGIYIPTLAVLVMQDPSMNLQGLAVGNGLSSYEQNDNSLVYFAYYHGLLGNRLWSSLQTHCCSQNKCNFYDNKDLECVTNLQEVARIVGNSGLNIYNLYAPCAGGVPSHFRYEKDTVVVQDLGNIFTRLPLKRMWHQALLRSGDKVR
T1 sequence (P10619 327-480 limits assumed): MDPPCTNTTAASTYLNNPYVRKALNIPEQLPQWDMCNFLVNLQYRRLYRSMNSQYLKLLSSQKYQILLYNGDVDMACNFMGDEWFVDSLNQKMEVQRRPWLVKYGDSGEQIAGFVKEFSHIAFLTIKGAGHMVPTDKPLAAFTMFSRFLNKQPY
Type: biochemical
How it was run: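 Enzyme (residues 29-480, C-terminal His tag) pre-activated by cathepsin L at 37° C, then quenched with E-64. Compound preincubated 15 min at room temperature in 25 mM MES pH 5.5 with 5 mM DTT, then 2 μM Bodipy FL-bradykinin added for 15 min at 833 ng/ml enzyme. Product/substrate separated by microfluidic capillary electrophoresis; IC50 from multi-concentration inhibition.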

SMILES | IC50 [µM]
O=C(O)C[C@H](NC(=O)c1nc(-c2ccccc2)cs1)c1cccc(Cl)c1Cl [Example 95, (S)-3-(2,3-Dichloro-phenyl)-3-[(4-phenyl-thiazole-2-carbonyl)-amino]-propionic acid] | 0.038
COc1cccc([C@H](CC(=O)O)NC(=O)c2csc(-c3ccc(Cl)cc3)n2)c1OC [Example 101, (S)-3-{[2-(4-Chloro-phenyl)-thiazole-4-carbonyl]-amino}-3-(2,3-dimethoxy-phenyl)-propionic acid] | 1.12
O=C(O)C[C@H](NC(=O)c1csc(-c2ccc(Cl)cc2)n1)c1ccc(Cl)cc1Cl [Example 102, (S)-3-{[2-(4-Chloro-phenyl)-thiazole-4-carbonyl]-amino}-3-(2,4-dichloro-phenyl)-propionic acid] | 2.68
O=C(O)[C@@H]1CN(C(=O)c2nc(-c3ccc(C(F)(F)F)cc3)cs2)C[C@H]1c1ccccc1 [Example 103, (3S,4R)-4-Phenyl-1-[4-(4-trifluoromethyl-phenyl)-thiazole-2-carbonyl]-pyrrolidine-3-carboxylic acid] | > 10
COc1cccc([C@H](CC(=O)O)NC(=O)c2csc(-c3ccc(Cl)cc3)n2)c1 [Example 106, (S)-3-{[2-(4-Chloro-phenyl)-thiazole-4-carbonyl]-amino}-3-(3-methoxy-phenyl)-propionic acid] | 17.3
O=C(N[C@@H](Cc1ccc(Cl)cc1)C(=O)O)c1csc(-c2ccc(C(F)(F)F)cc2)n1 [Example 107, (S)-3-(4-Chloro-phenyl)-2-{[2-(4-trifluoromethyl-phenyl)-thiazole-4-carbonyl]-amino}-propionic acid] | 3.7
Cc1ccccc1[C@H](CC(=O)O)NC(=O)c1csc(-c2ccc(Cl)cc2)n1 [Example 109, (S)-3-{[2-(4-Chloro-phenyl)-thiazole-4-carbonyl]-amino}-3-o-tolyl-propionic acid] | 0.121
O=C(O)C[C@H](NC(=O)c1csc(-c2ccc(Cl)cc2)n1)c1ccccc1 [Example 110, (S)-3-{[2-(4-Chloro-phenyl)-thiazole-4-carbonyl]-amino}-3-phenyl-propionic acid] | 3.88
Cc1ccccc1-c1nc(C(=O)N[C@@H](CC(=O)O)c2ccccc2C)cs1 [Example 111, (S)-3-o-Tolyl-3-[(2-o-tolyl-thiazole-4-carbonyl)-amino]-propionic acid] | 0.106
Cc1ccccc1[C@H](CC(=O)O)NC(=O)c1csc(-c2ccc(C(F)(F)F)cc2)n1 [Example 112, (S)-3-o-Tolyl-3-{[2-(4-trifluoromethyl-phenyl)-thiazole-4-carbonyl]-amino}-propionic acid] | 1.31
Cc1ccccc1-c1nc(C(=O)N[C@@H](CC(=O)O)c2ccccc2)cs1 [Example 113, (S)-3-Phenyl-3-[(2-o-tolyl-thiazole-4-carbonyl)-amino]-propionic acid] | 0.322
Cc1ccccc1-c1nc(C(=O)NCC(C(=O)O)c2ccccc2)cs1 (stereo not drawn) [Example 114, 2-Phenyl-3-[(2-o-tolyl-thiazole-4-carbonyl)-amino]-propionic acid] | 7.04
O=C(NCC(C(=O)O)c1ccccc1)c1csc(-c2cccc(Cl)c2Cl)n1 (stereo not drawn) [Example 116, 3-{[2-(2,3-Dichloro-phenyl)-thiazole-4-carbonyl]-amino}-2-phenyl-propionic acid] | 7.71
O=C(NCC(C(=O)O)c1ccccc1)c1csc(-c2ccccc2Cl)n1 (stereo not drawn) [Example 118, 3-{[2-(2-Chloro-phenyl)-thiazole-4-carbonyl]-amino}-2-phenyl-propionic acid] | 6.04
O=C(O)CC(NC(=O)c1csc(-c2cccc(Cl)c2)n1)C1CCCCC1 (stereo not drawn) [Example 124, 3-{[2-(3-Chloro-phenyl)-thiazole-4-carbonyl]-amino}-3-cyclohexyl-propionic acid] | 3.42

Other lines, results leading:

IC50 [µM] | SMILES
1.37 | COc1cccc([C@H](CC(=O)O)NC(=O)c2csc(-c3cccc(Cl)c3)n2)c1OC [Example 90, (S)-3-{[2-(3-Chloro-phenyl)-thiazole-4-carbonyl]-amino}-3-(2,3-dimethoxy-phenyl)-propionic acid]
1.91 | O=C(O)C[C@H](NC(=O)c1csc(-c2cccc(Cl)c2)n1)c1ccc(Cl)cc1Cl [Example 91, (S)-3-{[2-(3-Chloro-phenyl)-thiazole-4-carbonyl]-amino}-3-(2,4-dichloro-phenyl)-propionic acid]
1.31 | O=C(O)C[C@H](NC(=O)c1csc(-c2cccc(Cl)c2)n1)c1ccccc1F [Example 92, (S)-3-{[2-(3-Chloro-phenyl)-thiazole-4-carbonyl]-amino}-3-(2-fluoro-phenyl)-propionic acid]
10.4 | O=C(O)C[C@H](NC(=O)c1csc(-c2cccc(Cl)c2)n1)c1ccccc1C(F)(F)F [Example 93, (S)-3-{[2-(3-Chloro-phenyl)-thiazole-4-carbonyl]-amino}-3-(2-trifluoromethyl-phenyl)-propionic acid]
3.73 | O=C(O)C[C@H](NC(=O)c1csc(-c2cccc(Cl)c2)n1)c1cccc(F)c1 [Example 94, (S)-3-{[2-(3-Chloro-phenyl)-thiazole-4-carbonyl]-amino}-3-(3-fluoro-phenyl)-propionic acid]
0.254 | O=C(O)C[C@H](NC(=O)c1nc(-c2ccccc2)cs1)c1ccc(Cl)cc1Cl [Example 96, (S)-3-(2,4-Dichloro-phenyl)-3-[(4-phenyl-thiazole-2-carbonyl)-amino]-propionic acid]
0.406 | O=C(O)C[C@H](NC(=O)c1nc(-c2ccccc2)cs1)c1ccc(C(F)(F)F)cc1 [Example 97, (S)-3-[(4-Phenyl-thiazole-2-carbonyl)-amino]-3-(4-trifluoromethyl-phenyl)-propionic acid]
0.66 | Cc1ccccc1[C@H](CC(=O)O)NC(=O)c1csc(-c2cccc(Cl)c2)n1 [Example 98, (S)-3-{[2-(3-Chloro-phenyl)-thiazole-4-carbonyl]-amino}-3-o-tolyl-propionic acid]
3.31 | O=C(O)C[C@H](NC(=O)c1nc(-c2ccccc2)cs1)c1cccc(C(F)(F)F)c1 [Example 99, (S)-3-[(4-Phenyl-thiazole-2-carbonyl)-amino]-3-(3-trifluoromethyl-phenyl)-propionic acid]
0.686 | O=C(O)C[C@H](NC(=O)c1csc(-c2ccc(Cl)cc2)n1)c1cccc(Cl)c1Cl [Example 100, (S)-3-{[2-(4-Chloro-phenyl)-thiazole-4-carbonyl]-amino}-3-(2,3-dichloro-phenyl)-propionic acid]
5.39 | O=C(O)C[C@H](NC(=O)c1csc(-c2ccc(Cl)cc2)n1)c1ccccc1C(F)(F)F [Example 104, (S)-3-{[2-(4-Chloro-phenyl)-thiazole-4-carbonyl]-amino}-3-(2-trifluoromethyl-phenyl)-propionic acid]
2.96 | O=C(O)C[C@H](NC(=O)c1csc(-c2ccc(Cl)cc2)n1)c1cccc(F)c1 [Example 105, (S)-3-{[2-(4-Chloro-phenyl)-thiazole-4-carbonyl]-amino}-3-(3-fluoro-phenyl)-propionic acid]
3.4 | COc1ccc([C@H](CC(=O)O)NC(=O)c2csc(-c3ccc(Cl)cc3)n2)cc1 [Example 108, (S)-3-{[2-(4-Chloro-phenyl)-thiazole-4-carbonyl]-amino}-3-(4-methoxy-phenyl)-propionic acid]
4.88 | O=C(NCC(C(=O)O)c1ccccc1)c1csc(-c2ccccc2)n1 (stereo not drawn) [Example 115, 2-Phenyl-3-[(2-phenyl-thiazole-4-carbonyl)-amino]-propionic acid]
2.75 | O=C(O)CC(Cc1ccccc1)NC(=O)c1csc(-c2cccc(Cl)c2Cl)n1 (stereo not drawn) [Example 117, 3-{[2-(2,3-Dichloro-phenyl)-thiazole-4-carbonyl]-amino}-4-phenyl-butyric acid]
0.68 | O=C(O)CC(NC(=O)c1csc(-c2ccccc2Cl)n1)C1CCCCC1 (stereo not drawn) [Example 119, 3-{[2-(2-Chloro-phenyl)-thiazole-4-carbonyl]-amino}-3-cyclohexyl-propionic acid]
1.45 | O=C(O)CC(Cc1ccccc1)NC(=O)c1csc(-c2ccccc2Cl)n1 (stereo not drawn) [Example 120, 3-{[2-(2-Chloro-phenyl)-thiazole-4-carbonyl]-amino}-4-phenyl-butyric acid]
12.6 | O=C(NCC(C(=O)O)c1ccccc1)c1csc(-c2ccccc2F)n1 (stereo not drawn) [Example 121, 3-{[2-(2-Fluoro-phenyl)-thiazole-4-carbonyl]-amino}-2-phenyl-propionic acid]
4.42 | O=C(O)CC(Cc1ccccc1)NC(=O)c1csc(-c2ccccc2F)n1 (stereo not drawn) [Example 122, 3-{[2-(2-Fluoro-phenyl)-thiazole-4-carbonyl]-amino}-4-phenyl-butyric acid]
> 10 | O=C(NCC(C(=O)O)c1ccccc1)c1csc(-c2cccc(Cl)c2)n1 (stereo not drawn) [Example 123, 3-{[2-(3-Chloro-phenyl)-thiazole-4-carbonyl]-amino}-2-phenyl-propionic acid]
9.06 | O=C(O)CC(Cc1ccccc1)NC(=O)c1csc(-c2cccc(Cl)c2)n1 (stereo not drawn) [Example 125, 3-{[2-(3-Chloro-phenyl)-thiazole-4-carbonyl]-amino}-4-phenyl-butyric acid]
